Laboratory results taken from patent publication US10093683B2, “Factor XIa inhibitors” (Merck Sharp & Dohme Corp., priority 2014, dated 2018).

Target: human Factor XIa (Homo sapiens (Human), UniProt P03951)
Test: Factor XIa Assay
Format: biochemical
Conditions: purified human Factor XIa 40 pM, Z-Gly-Pro-Arg-AFC 100 μM, pH 7.4; read-out: FXIa Ki
Method: The effectiveness of a compound of the present invention as an inhibitor of Coagulation Factor XIa can be determined using a relevant purified serine protease, and an appropriate synthetic substrate. The rate of hydrolysis of the chromogenic or fluorogenic substrate by the relevant serine protease was measured both in the absence and presence of compounds of the present invention. Assays were conducted at room temperature or at 37° C. […] A decrease in the rate of fluorescence change in the presence of inhibitor is indicative of enzyme inhibition. Such methods are known to one skilled in the art. The results of this assay are expressed as the inhibitory constant, Ki.
Factor XIa determinations were made in 50 mM HEPES buffer at pH 7.4 containing 150 mM NaCl, 5 mM CaCl2, and 0.1% PEG 8000 (polyethylene glycol; JT Baker or Fisher Scientific). Determinations were made using purified human Factor XIa at a final concentration of 40 pM (Sekisui Diagnostics) and he synthetic substrate, Z-Gly-Pro-Arg-AFC, TFA salt (Sigma #C0980) at a concentration of 100 μM.
Times required to achieve equilibration between enzyme and inhibitor were determined in control experiments. Initial velocities of product formation in the absence (Vo) or presence of inhibitor (Vi) were measured. Assuming competitive inhibition, and that unity is negligible compared Km/[S], [I]/e, and [I]/e (where [S], [I], and e respectively represent the total concentrations, of substrate, inhibitor and enzyme), the equilibrium constant (Ki) for dissociation of the inhibitor from the enzyme can be obtained from the dependence of Vo/Vi on [I] shown in the following equation.

Sequence of human Factor XIa (P03951 388-625): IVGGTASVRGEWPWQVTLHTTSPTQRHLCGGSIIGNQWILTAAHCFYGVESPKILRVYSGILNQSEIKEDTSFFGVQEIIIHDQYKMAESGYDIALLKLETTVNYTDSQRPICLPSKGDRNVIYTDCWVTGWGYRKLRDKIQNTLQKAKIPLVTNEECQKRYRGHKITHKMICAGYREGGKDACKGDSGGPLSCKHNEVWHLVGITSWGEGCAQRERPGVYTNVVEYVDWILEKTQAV
Sequence of human Factor XIa (P03951 19-387 partner): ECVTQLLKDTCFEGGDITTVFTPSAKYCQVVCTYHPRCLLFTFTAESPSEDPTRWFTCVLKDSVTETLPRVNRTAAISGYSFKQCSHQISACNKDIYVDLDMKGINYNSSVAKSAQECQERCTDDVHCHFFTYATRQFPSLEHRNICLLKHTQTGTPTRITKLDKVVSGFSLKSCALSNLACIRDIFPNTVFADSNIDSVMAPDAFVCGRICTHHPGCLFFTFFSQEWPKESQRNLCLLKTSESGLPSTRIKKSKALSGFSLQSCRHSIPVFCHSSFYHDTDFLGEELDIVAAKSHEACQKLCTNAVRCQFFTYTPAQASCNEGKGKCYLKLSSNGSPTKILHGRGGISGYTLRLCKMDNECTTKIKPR

Ki [nM]	SMILES
50.9	COC(=O)Nc1ccc(C(=O)N[C@@H](CC2CCC2)C(=O)N2CCC[C@@]3(C2)OC(=O)Nc2ccc(Cl)cc23)cc1 [Example 71, methyl (4-(((S)-1-((R)-6-chloro-2-oxo-1,2-dihydrospiro[benzo[d][1,3]oxazine-4,3′-piperidin]-1′-yl)-3-cyclobutyl-1-oxopropan-2-yl)carbamoyl)phenyl)carbamate]
33.3	COC(=O)Nc1ccc(C(=O)N[C@@H](CC(=O)N2CC(F)(F)C2)C(=O)N2CCC[C@@]3(C2)OC(=O)Nc2ccc(Cl)cc23)cc1 [Example 85, methyl (4-(((S)-1-((R)-6-chloro-2-oxo-1,2-dihydrospiro[benzo[d][1,3]oxazine-4,3′-piperidin]-1′-yl)-4-(3,3-difluoroazetidin-1-yl)-1,4-dioxobutan-2-yl)carbamoyl)phenyl)carbamate]
33.7	COC(=O)Nc1ccc(C(=O)N[C@@H](CC(=O)NC2CCC2)C(=O)N2CCC[C@@]3(C2)OC(=O)Nc2ccc(Cl)cc23)cc1 [Example 86, methyl (4-(((S)-1-((R)-6-chloro-2-oxo-1,2-dihydrospiro[benzo[d][1,3]oxazine-4,3′-piperidin]-1′-yl)-4-(cyclobutylamino)-1,4-dioxobutan-2-yl)carbamoyl)phenyl)carbamate]
20	COC(=O)Nc1ccc(C(=O)N[C@@H](CC(=O)N2CCOCC2)C(=O)N2CC[C@@]3(C2)OC(=O)Nc2ccc(Cl)cc23)cc1 [Example 88, methyl (4-(((S)-1-((R)-6-chloro-2-oxo-1,2-dihydrospiro[benzo[d][1,3]oxazine-4,3′-pyrrolidin]-1′-yl)-4-morpholino-1,4-dioxobutan-2-yl)carbamoyl)phenyl)carbamate]
59.2	COC(=O)Nc1ccc(C(=O)N[C@@H](CC(=O)NC2CCOCC2)C(=O)N2CC[C@@]3(C2)OC(=O)Nc2ccc(Cl)cc23)cc1 [Example 89, methyl (4-(((S)-1-((R)-6-chloro-2-oxo-1,2-dihydrospiro[benzo[d][1,3]oxazine-4,3′-pyrrolidin]-1′-yl)-1,4-dioxo-4-((tetrahydro-2H-pyran-4-yl)amino)butan-2-yl)carbamoyl)phenyl)carbamate]
57.4	COC(=O)Nc1ccc(C(=O)N[C@@H](CC(=O)Nc2ccccn2)C(=O)N2CC[C@@]3(C2)OC(=O)Nc2ccc(Cl)cc23)cc1 [Example 90, methyl (4-(((S)-1-((R)-6-chloro-2-oxo-1,2-dihydrospiro[benzo[d][1,3]oxazine-4,3′-pyrrolidin]-1′-yl)-1,4-dioxo-4-(pyridin-2-ylamino)butan-2-yl)carbamoyl)phenyl)carbamate]
144	COC(=O)Nc1ccc(C(=O)N[C@@H](CC(=O)Nc2ccc(F)cc2)C(=O)N2CC[C@@]3(C2)OC(=O)Nc2ccc(Cl)cc23)cc1 [Example 91, methyl (4-(((S)-1-((R)-6-chloro-2-oxo-1,2-dihydrospiro[benzo[d][1,3]oxazine-4,3′-pyrrolidin]-1′-yl)-4-((4-fluorophenyl)amino)-1,4-dioxobutan-2-yl)carbamoyl)phenyl)carbamate]
56.1	COC(=O)Nc1ccc(C(=O)N[C@@H](CC(=O)NS(=O)(=O)C2CC2)C(=O)N2CC[C@@]3(C2)OC(=O)Nc2ccc(Cl)cc23)cc1 [Example 92, methyl (4-(((S)-1-((R)-6-chloro-2-oxo-1,2-dihydrospiro[benzo[d][1,3]oxazine-4,3′-pyrrolidin]-1′-yl)-4-(cyclopropanesulfonamido)-1,4-dioxobutan-2-yl)carbamoyl)phenyl)carbamate]
45.8	COC(=O)Nc1ccc(C(=O)N[C@@H](CC(=O)NC2COC2)C(=O)N2CC[C@@]3(C2)OC(=O)Nc2ccc(Cl)cc23)cc1 [Example 93, methyl (4-(((S)-1-((R)-6-chloro-2-oxo-1,2-dihydrospiro[benzo[d][1,3]oxazine-4,3′-pyrrolidin]-1′-yl)-4-(oxetan-3-ylamino)-1,4-dioxobutan-2-yl)carbamoyl)phenyl)carbamate]
203	COC(=O)Nc1ccc(C(=O)N[C@@H](CC(=O)N2CC(N(C)C)C2)C(=O)N2CCC[C@@]3(C2)OC(=O)Nc2ccc(Cl)cc23)cc1 [Example 96, methyl (4-(((S)-1-((R)-6-chloro-2-oxo-1,2-dihydrospiro[benzo[d][1,3]oxazine-4,3′-piperidin]-1′-yl)-4-(3-(dimethylamino)azetidin-1-yl)-1,4-dioxobutan-2-yl)carbamoyl)phenyl)carbamate]
52	COC(=O)Nc1ccc(C(=O)N[C@@H](CCF)C(=O)N2CCC[C@@]3(C2)OC(=O)Nc2ccc(Cl)cc23)cc1 [Example 103, methyl (4-(((S)-1-((R)-6-chloro-2-oxo-1,2-dihydrospiro[benzo[d][1,3]oxazine-4,3′-piperidin]-1′-yl)-4-fluoro-1-oxobutan-2-yl)carbamoyl)phenyl)carbamate]

The next lines start with the compound.

SMILES	Ki [nM]
COC(=O)Nc1ccc(C(=O)N[C@@H](CCS(C)(=O)=O)C(=O)N2CCC[C@@]3(C2)OC(=O)Nc2ccc(Cl)cc23)cc1 [Example 59, methyl (4-(((S)-1-((R)-6-chloro-2-oxo-1,2-dihydrospiro[benzo[d][1,3]oxazine-4,3′-piperidin]-1′-yl)-4-(methylsulfonyl)-1-oxobutan-2-yl)carbamoyl)phenyl)carbamate]	97.7
COC(=O)Nc1ccc(C(=O)N[C@@H](CC(F)(F)F)C(=O)N2CCC[C@@]3(C2)OC(=O)Nc2ccc(Cl)cc23)cc1 [Example 64, methyl (4-(((S)-1-((R)-6-chloro-2-oxo-1,2-dihydrospiro[benzo[d][1,3]oxazine-4,3′-piperidin]-1′-yl)-4,4,4-trifluoro-1-oxobutan-2-yl)carbamoyl)phenyl)carbamate]	1930
COC(=O)Nc1ccc(C(=O)N[C@H](C(=O)N2CCC[C@@]3(C2)OC(=O)Nc2ccc(Cl)c(F)c23)C2CC2)cc1 [Example 68, methyl (4-(((S)-2-((R)-6-chloro-5-fluoro-2-oxo-1,2-dihydrospiro[benzo[d][1,3]oxazine-4,3′-piperidin]-1′-yl)-1-cyclopropyl-2-oxoethyl)carbamoyl)phenyl)carbamate]	56.4
COC(=O)Nc1ccc(C(=O)N[C@@H](Cc2cnc3ccccc3n2)C(=O)N2CCC[C@@]3(C2)OC(=O)Nc2ccc(Cl)c(F)c23)cc1 [Example 69, methyl (4-(((S)-1-((R)-6-chloro-5-fluoro-2-oxo-1,2-dihydrospiro[benzo[d][1,3]oxazine-4,3′-piperidin]-1′-yl)-1-oxo-3-(quinoxalin-2-yl)propan-2-yl)carbamoyl)phenyl)carbamate]	36.2
COC(=O)Nc1ccc(C(=O)N[C@@H](Cc2c[nH]c3ccccc23)C(=O)N2CCC[C@@]3(C2)OC(=O)Nc2ccc(Cl)c(F)c23)cc1 [Example 70, methyl (4-(((S)-1-((R)-6-chloro-5-fluoro-2-oxo-1,2-dihydrospiro[benzo[d][1,3]oxazine-4,3′-piperidin]-1′-yl)-3-(1H-indol-3-yl)-1-oxopropan-2-yl)carbamoyl)phenyl)carbamate]	20.7
COC(=O)Nc1ccc(C(=O)N[C@@H](CC2CCCC2)C(=O)N2CCC[C@@]3(C2)OC(=O)Nc2ccc(Cl)cc23)cc1 [Example 73, methyl (4-(((S)-1-((R)-6-chloro-2-oxo-1,2-dihydrospiro[benzo[d][1,3]oxazine-4,3′-piperidin]-1′-yl)-3-cyclopentyl-1-oxopropan-2-yl)carbamoyl)phenyl)carbamate]	32
COC/C=C/c1ccc(C[C@H](NC(=O)c2ccc(NC(=O)OC)cc2)C(=O)N2CC[C@@]3(C2)OC(=O)Nc2ccc(Cl)cc23)cc1 [Example 80, methyl (4-(((S)-1-((R)-6-chloro-2-oxo-1,2-dihydrospiro[benzo[d][1,3]oxazine-4,3′-pyrrolidin]-1′-yl)-3-(4-((E)-3-methoxyprop-1-en-1-yl)phenyl)-1-oxopropan-2-yl)carbamoyl)phenyl)carbamate]	75
COC(=O)Nc1ccc(C(=O)N[C@@H](CC2CCC(F)(F)CC2)C(=O)N2CCC[C@@]3(C2)OC(=O)Nc2ccc(Cl)cc23)cc1 [Example 106, methyl (4-(((S)-1-((R)-6-chloro-2-oxo-1,2-dihydrospiro[benzo[d][1,3]oxazine-4,3′-piperidin]-1′-yl)-3-(4,4-difluorocyclohexyl)-1-oxopropan-2-yl)carbamoyl)phenyl)carbamate]	16.8
COC(=O)Nc1ccc(C(=O)N[C@@H](CCNC(=O)C2CCC2)C(=O)N2CCC[C@@]3(C2)OC(=O)Nc2ccc(Cl)cc23)cc1 [Example 107, methyl (4-(((S)-1-((R)-6-chloro-2-oxo-1,2-dihydrospiro[benzo[d][1,3]oxazine-4,3′-piperidin]-1′-yl)-4-(cyclobutanecarboxamido)-1-oxobutan-2-yl)carbamoyl)phenyl)carbamate]	50.7
COC(=O)Nc1ccc(C(=O)N[C@@H](CCNC(=O)OC2CCC2)C(=O)N2CCC[C@@]3(C2)OC(=O)Nc2ccc(Cl)cc23)cc1 [Example 109, methyl (4-(((S)-1-((R)-6-chloro-2-oxo-1,2-dihydrospiro[benzo[d][1,3]oxazine-4,3′-piperidin]-1′-yl)-4-((cyclobutoxycarbonyl)amino)-1-oxobutan-2-yl)carbamoyl)phenyl)carbamate]	48.3
